Measurements from patent US12286435B2, “Compound having benzo seven-membered ring structure, preparation method therefor, and use thereof” (BIONNA (BEIJING) MEDICAL TECHNOLOGY CO., LTD., priority 2019, dated 2025).
Where “and” joins values, the source holds several entries; their conditions need not be identical. Identical values can stand only once. Like-named read-outs stand apart in the source and are kept apart here.

Experiments:
BRD4 BD1 protein = BRD4 BD1 protein (Homo sapiens (Human), UniProt O60885); experiment: Fluorescence polarization binding affinity (Ki) with BRD4 BD1 protein
BRD4 BD2 protein = BRD4 BD2 protein (Homo sapiens (Human), UniProt O60885); experiment: Fluorescence polarization binding affinity (Ki) with BRD4 BD2 protein
[1] = fluorescence polarization, Ki calculated from IC50

Structure (SMILES)	Ki (BRD4 BD1 protein; [1])	Ki (BRD4 BD2 protein; [1])	Ki (BRD4 BD1 protein)	Ki (BRD4 BD2 protein)
Cc1nnn2c1-c1ccc(C3=CCN(C4CCCC4)CC3)cc1C(Nc1cccc(C#N)c1)CC2 (stereo not shown) [BI31, 3-((9-(1-cyclopentyl-1,2,3,6-tetrahydropyridin-4-yl)-1-methyl-6,7-dihydro-5H-benzo[c][1,2,3]triazolo[1,5-a]azepin-7-yl)amino)benzonitrile 2,2,2-trifluoroacetate]	2290 nM	151 nM	–	–
Cc1nnn2c1-c1ccc(C3=CCNCC3)cc1C(Nc1ccc3[nH]ccc3c1)CC2 (stereo not shown) [WA82, N-(1H-indo1-5-yl)-1-methyl-9-(1,2,3,6-tetrahydropyridin-4-yl)-6,7-dihydro-5H-benzo[c][1,2,3]triazolo[1,5-a]azepin-7-amine 2,2,2-trifluoroacetate]	436 nM	53.6 nM	–	–
Cc1nnn2c1-c1ccc(-c3cnn(C)c3)cc1C(Nc1cccc(CCN(C)C)c1)CC2 (stereo not shown) [LC101, N-(3-(2-(dimethylamino)ethyl)phenyl)-1-methyl-9-(1-methyl-1H-pyrazol-4-yl)-6,7-dihydro-5H-benzo[c][1,2,3]triazolo[1,5-a]azepin-7-amine]	89 nM	13.6 nM	–	–
Cc1nnn2c1-c1ccc(C3=CCN(C(C)C)CC3)cc1C(Nc1cccc(C#N)c1)CC2 (stereo not shown) [BI34, 3-((9-(1-isopropyl-1,2,3,6-tetrahydropyridin-4-yl)-1-methyl-6,7-dihydro-5H-benzo[c][1,2,3]triazolo[1,5-a]azepine7-yl)amino)benzonitrile 2,2,2-trifluoroacetate]	4200 nM	291 nM	–	–
CCCN1CC=C(c2ccc3c(c2)C(Nc2cccc(Cl)c2)CCn2nnc(C)c2-3)CC1 (stereo not shown) [BH120, N-(3-chlorophenyl)-1-methyl-9-(1-propyl-1,2,3,6-tetrahydropyridin-4-yl)-6,7-dihydro-5H-benzo[c][1,2,3]triazolo[1,5-a]azepin-7-amine 2,2,2-trifluoroacetate]	583 nM	21.9 nM	–	–
Cc1nnn2c1-c1ccc(-c3cnn(C)c3)cc1C(Nc1ccccc1Cl)CC2 (stereo not shown) [LC191, N-(2-chlorophenyl)-1-methyl-9-(1-methyl-1H-pyrazol-4-yl)-6,7-dihydro-5H-benzo[c][1,2,3]triazolo[1,5-a]azepin-7-amine]	51.8 nM	11.2 nM	–	–
CCC(C)N1CC=C(c2ccc3c(c2)C(Nc2cccc(Cl)c2)CCn2nnc(C)c2-3)CC1 (stereo not shown) [BH87, 9-(1-(sec-butyl)-1,2,3,6-tetrahydropyridin-4-yl)-N-(3-chlorophenyl)-1-methyl-6,7-dihydro-5H-benzo[c][1,2,3]triazolo[1,5-a]azepin-7-amine 2,2,2-trifluoroacetate]	1100 nM	44.5 nM	–	–
Cc1nnn2c1-c1ccc(C3=CCN(C4CCC4)CC3)cc1C(Nc1cccc(S(C)(=O)=O)c1)CC2 (stereo not shown) [BI61, 9-(1-cyclobutyl-1,2,3,6-tetrahydropyridin-4-yl)-1-methyl-N-(3-(methylsulfonyl)phenyl)-6,7-dihydro-5H-benzo[c][1,2,3]triazolo[1,5-a]azepin-7-amine 2,2,2-trifluoroacetate]	3200 nM	148 nM	–	–
Cc1nnn2c1-c1ccc(C3=CCN(C4CCCCC4)CC3)cc1C(Nc1cccc(S(C)(=O)=O)c1)CC2 (stereo not shown) [BI57, 9-(1-cyclohexyl-1,2,3,6-tetrahydropyridin-4-yl)-1-methyl-N-(3-(methylsulfonyl)phenyl)-6,7-dihydro-5H-benzo[c][1,2,3]triazolo[1,5-a]azepin-7-amine 2,2,2-trifluoroacetate]	3610 nM	147 nM	–	–
CCN1CC=C(c2ccc3c(c2)C(Nc2cccc(Cl)c2F)CCn2nnc(C)c2-3)CC1 (stereo not shown) [RD115, N-(3-chloro-2-fluorophenyl)-9-(1-ethyl-1,2,3,6-tetrahydropyridin-4-yl)-1-methyl-6,7-dihydro-5H-benzo[c][1,2,3]triazolo[1,5-a]azepin-7-amine 2,2,2-trifluoroacetate]	1130 nM	59.1 nM	–	–
CC(=O)N1CC=C(c2ccc3c(c2)C(N(C(C)=O)c2cccc(Cl)c2)CCn2nnc(C)c2-3)CC1 (stereo not shown) [LD13]	–	–	944 nM	1740 nM
Cc1nnn2c1-c1ccc(C3=CCN(C(C)C)CC3)cc1C(Nc1cccc(Cl)c1F)CC2 (stereo not shown) [RE29, N-(3-chloro-2-fluorophenyl)-9-(1-isopropyl-1,2,3,6-tetrahydropyridin-4-yl)-1-methyl-6,7-dihydro-5H-benzo[c][1,2,3]triazolo[1,5-a]azepin-7-amine 2,2,2-trifluoroacetate]	1550 nM	65.8 nM	–	–
Cc1nnn2c1-c1ccc(C3=CCN(C)CC3)cc1C(Oc1cccc(Cl)c1)CC2 (stereo not shown) [BH43, 7-(3-chlorophenoxy)-1-methyl-9-(1-methyl-1,2,3,6-tetrahydropyridin-4-yl)-6,7-dihydro-5H-benzo[c][1,2,3]triazolo[1,5-a]azepine 2,2,2-trifluoroacetate]	> 100000 nM	316 nM	–	–
Cc1nnn2c1-c1ccc(-c3cnn(C)c3)cc1C(Nc1cc(F)cc(Cl)c1)CC2 (stereo not shown) [BJ193, N-(3-chloro-5-fluorophenyl)-1-methyl-9-(1-methyl-1H-pyrazol-4-yl)-6,7-dihydro-5H-benzo[c][1,2,3]triazolo[1,5-a]azepin-7-amine]	28.3 nM	8.4 nM	–	–
Cc1nnn2c1-c1ccc(C3=CCN(C4CCC4)CC3)cc1C(Nc1ccc(F)c(Cl)c1)CC2 (stereo not shown) [BI23, N-(3-chloro-4-fluorophenyl)-9-(1-cyclobutyl-1,2,3,6-tetrahydropyridin-4-yl)-1-methyl-6,7-dihydro-5H-benzo[c][1,2,3]triazolo[1,5-a]azepin-7-amine 2,2,2-trifluoroacetate]	1060 nM	57.3 nM	–	–
CCC(C)N1CC=C(c2ccc3c(c2)C(Nc2ccc(Cl)cc2)CCn2nnc(C)c2-3)CC1 (stereo not shown) [LD17, 9-(1-(sec-butyl)-1,2,3,6-tetrahydropyridin-4-yl)-N-(4-chlorophenyl)-1-methyl-6,7-dihydro-5H-benzo[c][1,2,3]triazolo[1,5-a]azepin-7-amine 2,2,2-trifluoroacetate]	616 nM	51 nM	–	–
Cc1nnn2c1-c1ccc(C3=CCNC3)cc1C(Nc1cccc(O)c1)CC2 (stereo not shown) [BJ183, 3-((9-(2,5-dihydro-1H-pyrrol-3-yl)-1-methyl-6,7-dihydro-5H-benzo[d][1,2,3]triazolo[1,5-a]azepin-7-yl)amino)phenol 2,2,2-trifluoroacetate]	939 nM	45 nM	–	–
Cc1nnn2c1-c1ccc(C3=CCN(C4CCCC4)CC3)cc1C(Nc1ccc(F)c(Cl)c1)CC2 (stereo not shown) [WYA10, N-(3-chloro-4-fluorophenyl)-9-(1-cyclopentyl-1,2,3,6-tetrahydropyridin-4-yl)-1-methyl-6,7-dihydro-5H-benzo[c][1,2,3]triazolo[1,5-a]azepin-7-amine 2,2,2-trifluoroacetate]	719 nM	20.7 nM and 47.4 nM	–	–
CCC(=O)N1CC=C(c2ccc3c(c2)C(Nc2ccc(Cl)cc2)CCn2nnc(C)c2-3)CC1 (stereo not shown) [LD14, 1-(4-(7-((4-chlorophenyl)amino)-1-methyl-6,7-dihydro-5H-benzo[c][1,2,3]triazolo[1,5-a]azepin-9-yl)-3,6-dihydropyridin-1(2H)-yl)propan-1-one]	14.3 nM	6.14 nM	–	–
Cc1nnn2c1-c1ccc(C3=CCN(C)CC3)cc1C(Nc1ccccc1Cl)CC2 (stereo not shown) [RD06, N-(2-chlorophenyl)-1-methyl-9-(1-methyl-1,2,3,6-tetrahydropyridin-4-yl)-6,7-dihydro-5H-benzo[c][1,2,3]triazolo[1,5-a]azepin-7-amine 2,2,2-trifluoroacetate]	1030 nM	56.4 nM	–	–
Cc1nnn2c1-c1ccc(-c3cnn(C)c3)cc1C(Nc1c(F)cccc1Cl)CC2 (stereo not shown) [LC185, N-(2-chloro-6-fluorophenyl)-1-methyl-9-(1-methyl-1H-pyrazol-4-yl)-6,7-dihydro-5H-benzo[c][1,2,3]triazolo[1,5-a]azepin-7-amine]	162 nM	16.4 nM	–	–
Cc1nnn2c1-c1ccc(C3=CCNCC3)cc1C(N(C=O)c1cccc(Cl)c1)CC2 (stereo not shown) [LC193, N-(3-chlorophenyl)-N-(1-methyl-9-(1,2,3,6-tetrahydropyridin-4-yl)-6,7-dihydro-5H-benzo[c][1,2,3]triazolo[1,5-a]azepin-7-yl)formamide 2,2,2-trifluoroacetate]	> 4000 nM	698 nM	–	–
Cc1nnn2c1-c1ccc(C3CCN(C)CC3)cc1C(Nc1ccc(Cl)cc1)CC2 (stereo not shown) [BF178, N-(4-chlorophenyl)-1-methyl-9-(1-methylpiperidin-4-yl)-6,7-dihydro-5H-benzo[c][1,2,3]triazolo[1,5-a]azepin-7-amine]	> 20000 nM	> 20000 nM	–	–
CCN1CCC(c2ccc3c(c2)C(Nc2cccc(Cl)c2)CCn2nnc(C)c2-3)CC1 (stereo not shown) [RD142, N-(3-chlorophenyl)-9-(1-ethylpiperidin-4-yl)-1-methyl-6,7-dihydro-5H-benzo[c][1,2,3]triazolo[1,5-a]azepin-7-amine 2,2,2-trifluoroacetate]	4410 nM	193 nM	–	–
Cc1cc(NC2CCn3nnc(C)c3-c3ccc(C4=CCNCC4)cc32)n(C)n1 (stereo not shown) [BJ28, N-(1,3-dimethyl-1H-pyrazol-5-yl)-1-methyl-9-(1,2,3,6-tetrahydropyridin-4-yl)-6,7-dihydro-5H-benzo[c][1,2,3]triazolo[1,5-a]azepin-7-amine 2,2,2-trifluoroacetate]	1830 nM	250 nM	–	–
Cc1nnn2c1-c1ccc(C3=CCNCC3)cc1C(Nc1ccc3cc[nH]c3c1)CC2 (stereo not shown) [WA83, N-(1H-indo1-6-yl)-1-methyl-9-(1,2,3,6-tetrahydropyridin-4-yl)-6,7-dihydro-5H-benzo[c][1,2,3]triazolo[1,5-a]azepin-7-amine 2,2,2-trifluoroacetate]	431 nM	88.6 nM	–	–
Cc1nnn2c1-c1ccc(-c3cnn(C)c3)cc1C(N(C=O)c1cccc(Cl)c1)CC2 (stereo not shown) [LC174, N-(3-chlorophenyl)-N-(1-methyl-9-(1-methyl-1H-pyrazol-4-yl)-6,7-dihydro-5H-benzo[c][1,2,3]triazolo[1,5-a]azepin-7-yl)formamide]	949 nM	623 nM	–	–
CNC(=O)Cc1cccc(NC2CCn3nnc(C)c3-c3ccc(C4=CCNCC4)cc32)c1 (stereo not shown) [LC131]	835 nM	86.3 nM	–	–
Cc1nnn2c1-c1ccc(-c3cnn(C)c3)cc1C(Nc1cccc(Cl)c1)CC2 (stereo not shown) [LC186, N-(3-chlorophenyl)-1-methyl-9-(1-methyl-1H-pyrazol-4-yl)-6,7-dihydro-5H-benzo[c][1,2,3]triazolo[1,5-a]azepin-7-amine]	31.3 nM	6.98 nM	–	–
